Assay results reported in US20170002011A1, “BENZENE SULFONAMIDES AS CCR9 INHIBITORS” (NORGINE B.V., priority 2013, published 2017).

Legend:
CCR9 [1] = target: T1, CCR9 (Homo sapiens, UniProt P51686); assay: FLIPR calcium flux assay using MOLT4 cells (TECK stimulation); format: cell-based; parameters: endogenous in cells; host or cells: MOLT4 (human T-cell line); conditions: MOLT4 cells (a human T-cell line); Ki determined from IC50 of TECK-induced intracellular calcium increase
T1 sequence (P51686 1-369): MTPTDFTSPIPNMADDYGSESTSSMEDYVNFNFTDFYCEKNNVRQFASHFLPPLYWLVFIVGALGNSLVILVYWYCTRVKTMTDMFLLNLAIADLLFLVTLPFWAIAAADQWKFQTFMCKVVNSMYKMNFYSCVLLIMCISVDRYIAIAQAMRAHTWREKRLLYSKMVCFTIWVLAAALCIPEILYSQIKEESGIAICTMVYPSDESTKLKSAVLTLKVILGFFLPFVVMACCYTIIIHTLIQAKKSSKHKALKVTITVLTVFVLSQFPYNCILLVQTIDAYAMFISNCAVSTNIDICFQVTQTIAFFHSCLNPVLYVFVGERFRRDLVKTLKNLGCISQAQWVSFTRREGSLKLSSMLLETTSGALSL
Procedure: Biological Activity: FLIPR Assay Using MOLT4 Cells
A calcium flux assay was used to determine the ability of the compounds to interfere with the binding between CCR9 and its chemokine ligand (TECK) in MOLT4 cells (a human T-cell line). MOLT4 cells were seeded (100,000 cells/well) in coming cell culture plates (Cat #3603) in assay buffer (lx HBSS, 20 mM HEPES) containing 2.5 mM Probenecid. The plate was centrifuged at 1200 rpm for 3 minutes and incubated at 37° C./5% CO2 for 2 hours. A 0.3× Fluo-4 NW calcium dye was prepared in assay buffer containing 5 mM Probenecid and stored in the dark. Each well was loaded with 25 μL of 0.3× Fluo-4 NW calcium dye and incubated at 37 C/5% CO2 for 60 minutes and then at room temperature for 30 minutes. A half-log serially diluted concentration response curve was prepared at a 4× concentration for each (10 μM-0.1 nM final assay concentration) and 25 μL of the compound then transferred to the cells (100 μL final volume) for 60 minutes prior to stimulation (30 minutes at 37° C./5% CO2 and 30 minutes at room temperature). TECK was diluted to 5× its EC50 in assay buffer (containing 0.1% [w/v] bovine serum albumin [BSA]) and 25 μL dispensed through the FLIPR instrument to stimulate the cells (125 μL final volume). The increased in intracellular calcium levels was measured with the FLIPR instrument. The potency of the compound as CCR9 antagonist was calculated as an IC50 using GraphPad Prism software (variable slope four parameter). The Ki of the compound was determined from the IC50 values using the following equation.
(§1) Ki calculation: IC50/1+(Agonist (TECK) conc. used in assay/EC50 of agonist (TECK) generated on day of experiment)

CCR9 [2] = target: T1, CCR9; assay: FLIPR calcium flux assay using hCCR9 over expressed cells (TECK stimulation); format: cell-based; parameters: expressed in transfected cells; host or cells: Chem-1 cells overexpressing hCCR9; conditions: Chem1-hCCR9 overexpressing cells; Ki determined from IC50 of TECK-induced intracellular calcium increase
Procedure: Biological Activity: FLIPR Assay Using hCCR9 Over Expressed Cells
A calcium flux assay was used to determine the ability of the compounds to interfere with the binding between CCR9 and its chemokine ligand (TECK) in Cheml-hCCR9 overexpressing cells. hCCR9 overexpressing cells were seeded (25,000 cells/well) into black Poly-D-Lysine coated clear bottom 96-well plates (BD Biosciences, Cat #356640) and incubated overnight at 37° C./5% CO2 in a humidified incubator. Media was aspirated and cells washed twice with 100 μL assay buffer (1×HBSS, 20 mM HEPES) containing 2.5 mM Probenecid. A 0.3× Fluo-4 NW calcium dye was prepared in assay buffer containing 5 mM Probenecid and stored in the dark. Each well was loaded with 100 μL of 0.3× Fluo-4 NW calcium dye and incubated at 37° C./5% CO2 for 60 minutes and then at room temperature for 30 minutes. A half-log serially diluted concentration response curve was prepared at a 3× final assay concentration for each compound (10 μM−0.1 nM final assay concentration) and 50 μL of the compound then transferred to the cells (150 μL final volume) for 60 minutes prior to stimulation (30 minutes at 37° C./5% CO2 and 30 minutes at room temperature). TECK was diluted to 4× its ECso in assay buffer (containing 0.1% [w/v] bovine serum albumin[BSA]) and 50 μL dispensed through the fluorometric imaging plate reader (FLIPR) instrument to stimulate the cells (200 μL final volume). The increase in intracellular calcium levels was measured with the FLIPR instrument. The potency of the compound as a CCR9 antagonist was calculated as an IC50 using GraphPad Prism software (variable slope four parameter). The Ki of the compound was determined from the IC50 values using the following equation.
as §1

Row | Ki (CCR9 [1]) | Ki (CCR9 [2]) | SMILES
1 | 107 nM | 127 nM | COc1ncccc1-c1cc2c(C#N)ccc(NS(=O)(=O)c3ccc(C(C)(C)C)cc3)n2n1 [Compound 202]
2 | 85 nM | 149 nM | Cc1ncccc1-c1cc2c(Cl)ccc(NS(=O)(=O)c3ccc(C(C)(C)C)cc3)n2n1 [Compound 203]
3 | 37 nM | 121 nM | Cc1ncccc1-c1cc2c(C#N)ccc(NS(=O)(=O)c3ccc(C(C)(C)C)cc3)n2n1 [Compound 204]
4 | 64 nM | 128 nM | Cc1ccc(-c2cc3c(C#N)ccc(NS(=O)(=O)c4ccc(C(C)(C)C)cc4)n3n2)cn1 [Compound 206]
